Drawing on PubChem BioAssay (NCI), this text covers TGI and GI50 for 14 molecules.

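Step 1: Grow cells in 96-well plates. Step 2: Expose to compound for 48 hours at 5 concentrations. Step 3: Interpolate endpoints linearly; if unreached, use highest concentration. GI50 = concentration required for 50% inhibition of growth. TGI marks complete inhibition of growth.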 Where only a bound is given, the exact number is not on record here.

Common to all, as to assay: NCI tumour cell line growth inhibition, 48 h
The test system of assay [1] is OVCAR-3 ovarian.
The test system of assay [2] is CAKI-1 renal.
The test system of assay [3] is CCRF-CEM leukemia.
The subject of assay [4] is MOLT-4 leukemia.
In assay [5] the test system is SF-539 CNS.
The subject of assay [6] is RXF 393 renal.
The test system of assay [7] is SR leukemia.
Assay [8] deals with HL-60(TB) leukemia.
Assay [9] concerns MALME-3M melanoma.

Regarding `Cc1cc(C)n(CCNCCn2nc(C)cc2C)n1`, the TGI in [1], in assay [2], in assay [3], in [4], in assay [5] and in assay [6] was above 100 µM in each case. In addition, the TGI in [7] and in assay [8] was above 100 µM each time.
Consider `CCOC(=O)[C@H](CCCNC(=O)OC(C)(C)C)NCc1ccc(OC)c(OC)c1`, for which the TGI in assay [1], in assay [2], in [3], in [4], in assay [5] and in assay [9] was above 100 µM each time. Besides, the TGI in assay [6], in [7] and in assay [8] was above 100 µM throughout.
Regarding `CC(=O)Oc1ccccc1C(=O)N=C1[Se]CCN1C(=O)c1ccccc1OC(C)=O`, the GI50 in assay [2] was 671 nM; in [3], 556 nM; in assay [4], 621 nM; in assay [5] it was 1060 nM; in [9] it was 380 nM; in assay [6], 355 nM. The GI50 is 1510 nM in assay [7] and 708 nM in [8]. The TGI in [2] is 1.98 µM; in assay [3], above 100 µM; in [4] it was above 100 µM; in [5], 3.21 µM; in assay [9], 1.45 µM; in assay [6], 1.51 µM. Further, the TGI in [7] was above 100 µM; in assay [8], 8.47 µM.
Turning to `O=C(CSc1nnc(-c2ccccc2NC(=O)C(F)(F)F)c(=O)[nH]1)NC(=O)Nc1ccccc1`, the TGI in assay [1], in assay [2], in [3], in [4], in assay [5] and in assay [9] was above 100 µM each time. The TGI in assay [6] and in assay [7] was above 100 µM in each case.
As for `CCOC(=O)c1[nH]c(COC(C)=O)c(CCCOC(C)=O)c1CCCOC(C)=O`, the TGI in assay [1], in assay [2], in assay [3], in assay [4], in assay [5] and in assay [9] was above 100 µM throughout. For the same molecule, the TGI in [6], in [7] and in assay [8] was above 100 µM each time.
On to `COC(=O)/C=C/C1C(C(=O)OC)C2(C(=O)OC)CCC1(C(=O)OC)N2` (stereo not drawn), for which the TGI in [1], in [2], in [3], in assay [4], in assay [5] and in [9] was above 100 µM in each case. Further, the TGI in [6], in assay [7] and in assay [8] was above 100 µM throughout.
Regarding `C#CC(=O)Nc1cccc(Nc2nc3c(c(NCc4ccccc4)n2)CCCC3)c1`, the GI50 in assay [1] is 42 nM; in assay [5], below 10 nM; in assay [6], 38.9 nM. Further, the TGI in [1] was 0.175 µM; in assay [5], below 0.01 µM; in assay [6], 0.239 µM.
Consider `O=C(CCC/C(CC(=O)c1ccc(Br)cc1)=N\O)Nc1ccccc1`, for which the TGI in assay [1], in assay [3], in [4], in assay [9], in assay [6] and in [8] was above 100 µM throughout.
For `CCOC(=O)CCc1c(C)c2c(OC(C)=O)cc(OC(C)=O)cc2oc1=O`, the TGI in [1] was 83.3 µM; in assay [2], above 100 µM; in assay [5], above 100 µM; in assay [9], 55.5 µM; in assay [6], 73.3 µM; in [8] it was above 100 µM.
Turning to `CCCCCCCCCc1cc(=O)c2c(O)cccc2o1`, the TGI in assay [1] was above 100 µM; in assay [2], above 100 µM; in assay [3] it was above 100 µM; in assay [4], 89.5 µM; in assay [5], above 100 µM; in [9], above 100 µM. In addition, the TGI was above 100 µM in assay [6], above 100 µM in assay [7] and 93.9 µM in assay [8].
Consider `N#CC(/C(=N/NC(=O)C(=O)NN)C(=O)NC12CC3CC(CC(C3)C1)C2)c1ccccc1` (stereo not drawn), for which the TGI in [1], in [2], in assay [3], in assay [4], in assay [5] and in [9] was above 100 µM in each case. Moreover, the TGI in assay [6], in [7] and in assay [8] was above 100 µM each time.
`CCN(CC)CC(C)(C)C(=O)/C=C/c1ccc(Cl)c(Cl)c1`: the GI50 is 1530 nM in assay [1]; 1350 nM in assay [2]; 1140 nM in assay [3]; 2370 nM in assay [4]; 1850 nM in assay [5]; 1800 nM in assay [9]. In addition, the GI50 is 1590 nM in assay [6], 1750 nM in assay [7] and 1070 nM in [8]. The TGI was 2.88 µM in assay [1]; 2.74 µM in assay [2]; 4.22 µM in assay [3]; 8.11 µM in assay [4]; 3.54 µM in assay [5]; 3.61 µM in assay [9]. Further, the TGI in [6] was 3.1 µM; in assay [7] it was 8.91 µM; in assay [8], 6.59 µM.
Turning to `O=C(/C=C/c1c(O)ccc2ccccc12)c1ccc2ccccc2c1`, the TGI in [1], in assay [2], in assay [3], in assay [4], in assay [5] and in assay [9] was above 100 µM in each case. For the same molecule, the TGI in [6] and in [8] was above 100 µM each time.
Regarding `O=C(CCC(=O)Nc1cccc(Cl)c1)CC(=O)c1ccc(Cl)cc1`, the TGI in assay [1], in assay [2], in [4], in assay [5], in [9] and in assay [7] was above 100 µM in each case. Moreover, the TGI in assay [8] was above 100 µM.
